In patent publication US10336762B2 (priority 2017, dated 2019):
Where two headings read alike, the source gives them in different places.

Experiments:
TNFα = assay: cells; format: cell-based, human; settings: LPS-stimulated human monocytes, read-out: EC50 TNF
IRAK4 enzyme = IRAK4 enzyme (Homo sapiens (Human), UniProt Q9NWZ3); assay: biochemical; format: biochemical; settings: IRAK4 enzyme, 500 μM ATP
[1] = Homo sapiens, Monocyte, TNFα content
[2] = Homo sapiens, Monocyte, TNFα by TR-FRET

IRAK4 enzyme, sequence (Q9NWZ3 whole entry): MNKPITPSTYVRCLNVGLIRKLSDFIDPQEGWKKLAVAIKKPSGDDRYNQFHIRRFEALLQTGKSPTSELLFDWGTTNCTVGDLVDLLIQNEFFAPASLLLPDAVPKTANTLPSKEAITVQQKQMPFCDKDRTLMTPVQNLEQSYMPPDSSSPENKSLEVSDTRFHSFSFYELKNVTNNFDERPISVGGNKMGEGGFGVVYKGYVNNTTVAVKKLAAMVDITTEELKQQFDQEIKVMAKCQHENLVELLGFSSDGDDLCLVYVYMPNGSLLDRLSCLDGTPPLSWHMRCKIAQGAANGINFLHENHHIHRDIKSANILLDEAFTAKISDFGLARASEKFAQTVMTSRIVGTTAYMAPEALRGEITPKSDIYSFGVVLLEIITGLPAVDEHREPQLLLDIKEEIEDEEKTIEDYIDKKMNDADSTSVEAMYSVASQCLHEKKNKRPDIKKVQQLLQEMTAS

| Compound | EC50 (TNFα; [1]) | IC50 (IRAK4 enzyme; TR-FRET) | EC50 (TNFα; [2]) | EC50 (TNFα; TNFα by TR-FRET) | IC50 (IRAK4 enzyme; TR-FRET (HTRF)) |
| --- | --- | --- | --- | --- | --- |
| CC(C)(O)[C@H](F)CNC(=O)c1cnc(-c2ccc3cc(C#N)cnn23)cc1Nc1nnc(Cc2ccccc2)o1 [Example 336, (R)-4-((5-benzyl-1,3,4-oxadiazol-2-yl)amino)-6-(3-cyanopyrrolo[1,2-b]pyridazin-7-yl)-N-(2-fluoro-3-hydroxy-3-methyl-butyl)nicotinamide] | 522 nM | 5 nM | – | – | – |
| CCOc1cncc(Nc2cc(-c3ccc4cc(C#N)cnn34)ncc2C(=O)NC[C@@H](F)C(C)(C)O)c1 [Example 835, (R)-6-(3-cyanopyrrolo[1,2-b]pyridazin-7-yl)-4-((5-ethoxypyridin-3-yl)amino)-N-(2-fluoro-3-hydroxy-3-methylbutyl)nicotinamide] | – | < 1 nM | 8 nM | – | – |
| CC(C)(O)[C@H](F)CNC(=O)c1cnc(-c2ccc3cc(C#N)cnn23)cc1NC1CC2(CCN2)C1 (stereo partly drawn) [Example 911, 4-(((4R,6s)-1-azaspiro[3.3]heptan-6-yl)amino)-6-(3-cyanopyrrolo[1,2-b]pyridazin-7-yl)-N-((R)-2-fluoro-3-hydroxy-3-methylbutyl) nicotinamide] | – | 7 nM | – | 318 nM | – |
| CN1CCC(Nc2cc(-c3ccc4cc(C#N)cnn34)ncc2C(=O)NC[C@@H](F)C(C)(C)O)CC1 [Example 114, (R)-6-(3-cyanopyrrolo[1,2-b]pyridazin-7-yl)-N-(2-fluoro-3-hydroxy-3-methylbutyl)-4-((1-methylpiperidin-4-yl)amino)nicotinamide] | 177 nM | 4 nM | – | – | – |
| CC(C)Nc1cc(-c2ccc3cc(C#N)cnn23)ncc1C(=O)N[C@H]1CC[C@H](NC(=O)C2CC2)CC1 [Example 125, 6-(3-cyanopyrrolo[1,2-b]pyridazin-7-yl)-N-((1r,4r)-4-(cyclopropane-carboxamido)cyclohexyl)-4-(isopropyl-amino)nicotinamide] | 114 nM | 1 nM | – | – | – |
| Cn1cnc(CNC(=O)c2cnc(-c3ccc4cc(C#N)cnn34)cc2NC23CCC(O)(CC2)CC3)c1 [Example 929, 6-(3-cyanopyrrolo[1,2-b]pyridazin-7-yl)-4-((4-hydroxybicyclo[2.2.2]octan-1-yl)amino)-N-((1-methyl-1H-imidazol-4-yl)methyl)nicotinamide] | – | 1 nM | 126 nM | – | – |
| CC(C)(O)[C@H](F)CNC(=O)c1cnc(-c2ccc3cc(C#N)cnn23)cc1Nc1ccc(-c2cnco2)cc1 [Example 216, (R)-6-(3-cyanopyrrolo[1,2-b]pyridazin-7-yl)-N-(2-fluoro-3-hydroxy-3-methylbutyl)-4-((4-(oxazol-5-yl)phenyl)amino) nicotinamide] | 32 nM | < 1 nM | – | – | – |
| CC(C)(O)[C@H](F)CNC(=O)c1cnc(-c2ccc3cc(C#N)cnn23)cc1N[C@H]1C[C@H](OC(=O)NC2CC2)C1 [Example 160, (1R,3r)-3-((2-(3-cyano-pyrrolo[1,2-b]pyridazin-7-yl)-5-(((R)-2-fluoro-3-hydroxy-3-methylbutyl)carbamoyl)pyridin-4-yl)amino)cyclobutyl cyclopropylcarbamate] | > 10000 nM | 465 nM | – | – | – |
| CC(C)(O)[C@H](F)CNC(=O)c1cnc(-c2ccc3cc(C#N)cnn23)cc1Nc1cccc(OC(F)F)c1 [Example 608, (R)-6-(3-cyanopyrrolo[1,2-b]pyridazin-7-yl)-4-((3-(difluoromethoxy)phenyl)amino)-N-(2-fluoro-3-hydroxy-3-methylbutyl) nicotinamide] | 123 nM | – | – | – | 1 nM |
| CC(C)(O)[C@H](F)CNC(=O)c1cnc(-c2ccc3cc(C#N)cnn23)cc1Nc1ccc(F)cn1 [Example 687, (R)-6-(3-cyanopyrrolo[1,2-b]pyridazin-7-yl)-N-(2-fluoro-3-hydroxy-3-methylbutyl)-4-((5-fluoro-pyridin-2-yl)amino) nicotinamide] | 42 nM | – | – | – | < 1 nM |
| CC(C)(O)[C@H](F)CNC(=O)c1cnc(-c2ccc3cc(C#N)cnn23)cc1NC1CC2(CCNC2)C1 (stereo partly drawn) [Example 902, (R)-4-(6-azaspiro[3.4]octan-2-ylamino)-6-(3-cyanopyrrolo[1,2-b]pyridazin-7-yl)-N-(2-fluoro-3-hydroxy-3-methyl-butyl)nicotinamide] | – | 1 nM | 1230 nM | – | – |
| CC(C)Cc1cccc(Nc2cc(-c3ccc4cc(C#N)cnn34)ncc2C(=O)NC[C@@H](F)C(C)(C)O)c1 [Example 838, (R)-6-(3-cyanopyrrolo[1,2-b]pyridazin-7-yl)-N-(2-fluoro-3-hydroxy-3-methylbutyl)-4-((3-isobutylphenyl)amino) nicotinamide] | – | 57 nM | > 10000 nM | – | – |
| CC(C)(O)[C@H](F)CNC(=O)c1cnc(-c2ccc3cc(C#N)cnn23)cc1NC1CCC2(CC1)COC2 [Example 781, (R)-4-(2-oxaspiro[3.5]nonan-7-ylamino)-6-(3-cyanopyrrolo[1,2-b]pyridazin-7-yl)-N-(2-fluoro-3-hydroxy-3-methyl-butyl)nicotinamide] | 90 nM | – | – | – | < 1 nM |
| CC1(C(=O)NC[C@H]2C[C@H](Nc3cc(-c4ccc5cc(C#N)cnn45)ncc3C(=O)NC[C@@H](F)C(C)(C)O)C2)CC1 [Example 827, 6-(3-cyanopyrrolo[1,2-b]pyridazin-7-yl)-N-((R)-2-fluoro-3-hydroxy-3-methylbutyl)-4-(((1r,3R)-3-((1-methylcyclopropane-1-carboxamido)methyl)cyclo-butyl)amino)nicotinamide] | – | < 1 nM | 15 nM | – | – |
| CC(=O)NC(C)(C)CCNC(=O)c1cnc(-c2ccc3cc(C#N)cnn23)cc1NC12CCC(O)(CC1)CC2 [Example 344, N-(3-acetamido-3-methylbutyl)-6-(3-cyanopyrrolo[1,2-b]pyridazin-7-yl)-4-((4-hydroxybicyclo[2.2.2]octan-1-yl)amino) nicotinamide] | 48 nM | 2 nM | – | – | – |
| CC(C)(O)[C@H](F)CNC(=O)c1cnc(-c2ccc3cc(C#N)cnn23)cc1Nc1ccc2c(N)n[nH]c2c1 [Example 647, (R)-4-((3-amino-1H-indazol-6-yl)amino)-6-(3-cyanopyrrolo[1,2-b]pyridazin-7-yl)-N-(2-fluoro-3-hydroxy-3-methyl-butyl)nicotinamide] | 48 nM | – | – | – | < 1 nM |
| CC(C)(O)[C@H](F)CNC(=O)c1cnc(-c2ccc3cc(C#N)cnn23)cc1Nc1ccc(C(N)=O)cc1 [Example 381] | 18 nM | < 1 nM | – | – | – |
| CNC(=O)C12CCC(Nc3cc(-c4ccc5cc(C#N)cnn45)ncc3C(=O)NC[C@@H](F)C(C)(C)O)(CC1)CC2 [Example 416, 6-(3-cyanopyrrolo[1,2-b]pyridazin-7-yl)-N-((R)-2-fluoro-3-hydroxy-3-methylbutyl)-4-((4-(methylcarbamoyl)bicyclo[2.2.2]octan-1-yl)amino)nicotinamide] | 16 nM | – | – | – | 1 nM |
| CC(C)(O)[C@H](F)CNC(=O)c1cnc(-c2ccc3cc(C#N)cnn23)cc1N[C@H]1CCC[C@H]1O [Example 261, 6-(3-cyanopyrrolo[1,2-b]pyridazin-7-yl)-N-((R)-2-fluoro-3-hydroxy-3-methylbutyl)-4-(((1S,2R)-2-hydroxycyclopentyl)amino)nicotinamide] | 41 nM | < 1 nM | – | – | – |
